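Following 48 hours of exposure in 96-well plates, responses at five concentrations were used to interpolate endpoints linearly. Here, GI50 denotes the concentration required for 50% inhibition of growth.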 Activity calls are given as the source filed them. Rule as the data show it: active = GI50 up to about 1.1 µM and inactive = higher.
What was measured:
Assay in all cases: NCI-60 cell line screen, 48 h
K562 = test system: K562
KM12 = test system: KM12
SK-OV-3 = test system: SK-OV-3
COLO 205 = test system: COLO 205
HOP-62 = test system: HOP-62
DLD-1 = test system: DLD-1
ACHN = test system: ACHN
OVCAR-4 = test system: OVCAR-4
LXFL 529 = test system: LXFL 529
M14 = test system: M14
HCT-15 = test system: HCT-15
SK-MEL-5 = test system: SK-MEL-5
UACC-62 = test system: UACC-62
HOP-18 = test system: HOP-18
MOLT-4 = test system: MOLT-4
SNB-19 = test system: SNB-19
OVCAR-5 = test system: OVCAR-5
NCI-H23 = test system: NCI-H23
HCT-116 = test system: HCT-116
NCI-H522 = test system: NCI-H522
Malme-3M = test system: Malme-3M
SNB-75 = test system: SNB-75
TK-10 = test system: TK-10
SF-539 = test system: SF-539
OVCAR-3 = test system: OVCAR-3
SNB-78 = test system: SNB-78
SF-268 = test system: SF-268
CCRF-CEM = test system: CCRF-CEM
XF498 = test system: XF498
U-251 = test system: U-251
UO-31 = test system: UO-31
KM-20L2 = test system: KM-20L2
OVCAR-8 = test system: OVCAR-8
A549 = test system: A549
SK-MEL-28 = test system: SK-MEL-28
M19-MEL = test system: M19-MEL
SN12C = test system: SN12C
SK-MEL-2 = test system: SK-MEL-2
HCC 2998 = test system: HCC 2998
NCI-H460 = test system: NCI-H460
DMS-114 = test system: DMS-114
SF-295 = test system: SF-295
IGROV-1 = test system: IGROV-1
RPMI-8226 = test system: RPMI-8226
EKVX = test system: EKVX
UACC-257 = test system: UACC-257
CAKI-1 = test system: CAKI-1
786-0 = test system: 786-0
SW-620 = test system: SW-620
A498 = test system: A498
HT-29 = test system: HT-29
HL-60 = test system: HL-60
LOX IMVI = test system: LOX IMVI
NCI-H226 = test system: NCI-H226
SR = test system: SR
HOP-92 = test system: HOP-92
RXF 393 = test system: RXF 393
DMS-273 = test system: DMS-273

Measured: GI50

CN(C)c1ccc(/C=C/C(=O)C(C)(C)C)cc1Br
inactive: K562 25.2 µM | KM12 24.1 µM | SK-OV-3 52.1 µM | COLO 205 25.7 µM | HOP-62 63.5 µM | DLD-1 18.7 µM | ACHN 31.5 µM | OVCAR-4 19.9 µM | LXFL 529 30 µM | M14 18.9 µM | SK-MEL-5 18.7 µM | UACC-62 16.7 µM | HOP-18 > 100 µM | MOLT-4 21.2 µM | SNB-19 31.6 µM | OVCAR-5 49 µM | NCI-H23 26.1 µM | HCT-116 17.7 µM | NCI-H522 16.1 µM | Malme-3M 28.4 µM | SNB-75 20.1 µM | TK-10 30.8 µM | SF-539 25.1 µM | OVCAR-3 33.3 µM | SNB-78 44.2 µM | SF-268 20.3 µM | CCRF-CEM 24.6 µM | XF498 15 µM | U-251 27.4 µM | UO-31 32.1 µM | KM-20L2 25.6 µM | OVCAR-8 21.8 µM | A549 39.9 µM | SK-MEL-28 17.8 µM | M19-MEL 19.8 µM | SN12C 24.9 µM | SK-MEL-2 18.9 µM | HCC 2998 27.4 µM | NCI-H460 35.8 µM | DMS-114 18.5 µM | SF-295 40.3 µM | IGROV-1 35.4 µM | RPMI-8226 19.5 µM | EKVX 44.4 µM | UACC-257 24 µM | CAKI-1 23.9 µM | 786-0 24 µM | SW-620 27.7 µM | A498 41.1 µM | HT-29 31.8 µM
19.9 µM: HCT-15

COc1ccc2nc(-c3ccc(OCc4ccccc4)cc3)ccc2c1
inactive: K562 > 100 µM | KM12 > 100 µM | SK-OV-3 > 100 µM | COLO 205 > 100 µM | HOP-62 > 100 µM | DLD-1 > 100 µM | ACHN > 100 µM | OVCAR-4 > 100 µM | LXFL 529 > 100 µM | M14 > 100 µM | SK-MEL-5 > 100 µM | UACC-62 > 100 µM | HOP-18 > 100 µM | HL-60 > 100 µM | MOLT-4 > 100 µM | SNB-19 > 100 µM | LOX IMVI > 100 µM | OVCAR-5 > 100 µM | NCI-H23 > 100 µM | HCT-116 > 100 µM | NCI-H522 > 100 µM | Malme-3M > 100 µM | SNB-75 > 100 µM | TK-10 > 100 µM | SF-539 > 100 µM | OVCAR-3 > 100 µM | SNB-78 > 100 µM | SF-268 > 100 µM | CCRF-CEM > 100 µM | NCI-H226 > 100 µM | XF498 > 100 µM | UO-31 > 100 µM | SR > 100 µM | KM-20L2 > 100 µM | OVCAR-8 > 100 µM | HOP-92 > 100 µM | A549 > 100 µM | SK-MEL-28 > 100 µM | M19-MEL > 100 µM | SN12C > 100 µM | HCC 2998 > 100 µM | NCI-H460 > 100 µM | DMS-114 > 100 µM | SF-295 > 100 µM | IGROV-1 > 100 µM | RPMI-8226 > 100 µM | EKVX > 100 µM | UACC-257 > 100 µM | 786-0 > 100 µM | SW-620 > 100 µM | HT-29 > 100 µM | RXF 393 > 100 µM

CC1(c2ccc(F)cc2)C2C(=O)NC(=O)C1C(=O)NC2=O (stereo unspecified)
> 100 µM: HCT-15
inactive: K562 > 100 µM | KM12 > 100 µM | SK-OV-3 > 100 µM | COLO 205 > 100 µM | DLD-1 > 100 µM | ACHN > 100 µM | OVCAR-4 > 100 µM | LXFL 529 > 100 µM | M14 > 100 µM | SK-MEL-5 > 100 µM | UACC-62 > 100 µM | HL-60 > 100 µM | MOLT-4 > 100 µM | SNB-19 > 100 µM | LOX IMVI > 100 µM | OVCAR-5 > 100 µM | NCI-H23 > 100 µM | NCI-H522 > 100 µM | Malme-3M > 100 µM | SNB-75 > 100 µM | TK-10 > 100 µM | SF-539 > 100 µM | OVCAR-3 > 100 µM | SNB-78 > 100 µM | SF-268 > 100 µM | CCRF-CEM > 100 µM | NCI-H226 > 100 µM | XF498 > 100 µM | UO-31 > 100 µM | KM-20L2 > 100 µM | OVCAR-8 > 100 µM | HOP-92 > 100 µM | A549 > 100 µM | SK-MEL-28 > 100 µM | DMS-273 > 100 µM | M19-MEL > 100 µM | SN12C > 100 µM | SK-MEL-2 > 100 µM | HCC 2998 > 100 µM | NCI-H460 > 100 µM | DMS-114 > 100 µM | SF-295 > 100 µM | IGROV-1 > 100 µM | RPMI-8226 > 100 µM | EKVX > 100 µM | UACC-257 > 100 µM | CAKI-1 > 100 µM | 786-0 > 100 µM | SW-620 > 100 µM | A498 > 100 µM | HT-29 > 100 µM | RXF 393 > 100 µM

Source: ChEMBL document CHEMBL1201862, “PubChem BioAssay data set” (2004)
